Experimental findings from patent US8759390B2, “Chromene modulators of chemokine receptor activity” (Bristol-Myers Squibb Company, priority 2008, dated 2014) are described below.

The Ki is the dissociation constant of the complex between target and ligand, obtained from inhibition or displacement. Read a low Ki as higher affinity.

For this experiment, the target named is T1, CCR2 (Homo sapiens, UniProt P41597).
T1 construct: THP-1 human monocytic leukemic cell line, which expresses endogenous CCR2; endogenous in cells; host or cells: THP-1 human monocytic leukemia cells, or human PBMC / human monocytes
T1 sequence (P41597 1-360 isoform P41597-2): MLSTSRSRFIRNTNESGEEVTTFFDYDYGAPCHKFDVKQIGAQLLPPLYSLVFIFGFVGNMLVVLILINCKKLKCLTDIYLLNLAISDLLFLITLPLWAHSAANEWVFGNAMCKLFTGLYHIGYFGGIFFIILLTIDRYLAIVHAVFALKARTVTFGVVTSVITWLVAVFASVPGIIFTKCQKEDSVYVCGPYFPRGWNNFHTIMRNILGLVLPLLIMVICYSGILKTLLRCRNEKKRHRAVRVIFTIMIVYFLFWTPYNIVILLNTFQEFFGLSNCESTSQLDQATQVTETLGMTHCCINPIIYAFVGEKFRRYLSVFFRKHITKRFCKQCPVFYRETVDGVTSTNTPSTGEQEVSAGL
As to the kind of experiment: CCR2 binding (125I-human MCP-1 competition on human PBMC / THP-1 cells). The note with it: n = 1 unless otherwise noted; tested in one of the assays described. Here is the method: Antagonism of MCP-1 Binding to Human PBMC
Millipore filter plates (#MABVN1250) are treated with 100 μl of binding buffer (0.5% bovine serum albumin, 20 mM HEPES buffer and 5 mM magnesium chloride in RPMI 1640 media) for thirty minutes at room temperature. To measure binding, 50 μl of binding buffer, with or without a known concentration compound, is combined with 50 μl of ^125-I labeled human MCP-1 (to give a final concentration of […] radioligand) and 50 μl of binding buffer containing 5×10^5 cells. Cells used for such binding assays can include human peripheral blood mononuclear cells isolated by Ficoll-Hypaque gradient centrifugation, human monocytes (Weiner et al., J. Immunol. Methods. 1980, 36, 89), or the THP-1 cell line which expresses the endogenous receptor. The mixture of compound, cells and radioligand are incubated at room temperature for thirty minutes. Plates are placed onto a vacuum manifold, vacuum applied, and the plates washed three times with binding buffer containing 0.5M NaCl. The plastic skirt is removed from the plate, the plate allowed to air dry, the wells punched out and counted. The percent inhibition of binding is calculated using the total counts obtained in the absence of any competing compound and the background binding determined by addition of 100 nM MCP-1 in place of the test compound.
THP-1 Monocytic Cell Binding: Whole Cell-Based Assay
The human CCR2 binding assay was also established with the THP-1 human monocytic leukemic cell line, which expresses endogenous CCR2, using ^125I-human MCP-1 as the tracer ligand. Radioligand competition binding assays were used for assessment of binding affinity of test compounds to the CCR2 receptor. For radioligand competition studies, 100 μl containing 2.5×10^5 THP-1 cells/well (in assay buffer containing 50 mM HEPES, pH7.4, 5mM MgCl2, 1 mM CaCl2 and 0.5% BSA) were added to 96-well assay plates containing the test compounds in 3-fold serial dilution, with final concentrations ranging from 5 μM to […]. Subsequently, 50 μl ^125I-MCP-1 radioligand at a final concentration of 0.2 nM in assay buffer were added to the reaction. After a 90 minute incubation period at room temperature, the binding reaction was terminated by harvesting on GF/B filter plates (PerkinElmer Cat. No. 6005177) followed by washing with ice-cold wash buffer (50 mM HEPES, pH 7.4, 0.1% BSA, 0.5 M NaCl) to remove unbound ligand. After washing, the plate was dried for 45 minutes at 60° C. followed by addition of 40 μl MicroScint 20 scintillation fluid, sealed and analyzed by the Packard TopCount reader. Non-specific binding was determined in the presence of 10 μM (a molar excess of […]) of an in-house CCR2 small molecule antagonist (CCR2 IC50=2 nM). Specific binding of ^125I-MCP-1 was calculated as the difference between total and non-specific binding. The competition data was plotted as a percentage inhibition of radioligand specific bound in the absence of test compound (percent of total signal). After correcting for non-specific binding, IC50 values were determined The IC50 is defined as the concentration of test compound required to reduce ^125I-MCP-1 specific binding by 50% and was calculated using the four parameter logistic equation to fit the normalized data.
`O=C(O)C1=Cc2ccccc2OC1c1ccc(Cl)nc1` (racemic) [Example 7-2, 2-(6-chloropyridin-3-yl)-2H-chromene-3-carboxylic acid]: the affinity corresponds to a Ki of 4500 nM.

Consider `O=C(O)C1=Cc2ccccc2OC1c1cnc(Cl)c(Cl)c1` (racemic) [Example 7-3, 2-(5,6-dichloropyridin-3-yl)-2H-chromene-3-carboxylic acid], for which the Ki came to 570 nM.

Compound `O=C(O)C1=Cc2ccccc2OC1c1ccc(Cl)c(Br)c1` (racemic) [Example 7-4, 2-(3-bromo-4-chlorophenyl)-2H-chromene-3-carboxylic acid] registered a Ki of 170 nM.

On to `O=C(O)C1=Cc2ccccc2OC1c1ccc(C(F)(F)F)c(Cl)c1` (racemic) [Example 7-5, 2-(3-chloro-4-trifluoromethyl-phenyl)-2H-chromene-3-carboxylic acid], for which the affinity, expressed as Ki, was 390 nM.

In the case of `COc1ccc2c(c1)C=C(C(=O)O)C(c1ccc(Cl)c(Cl)c1)O2` (racemic) [Example 8, 2-(3,4-dichlorophenyl)-6-methoxy-2H-chromene-3-carboxylic acid], the affinity, expressed as Ki, was 360 nM.

`O=C(O)C1=Cc2ccc(F)cc2OC1c1ccc(Cl)c(Cl)c1` (racemic) [Example 9-1, 2-(3,4-dichlorophenyl)-7-fluoro-2H-chromene-3-carboxylic acid] showed a Ki of 350 nM.

Compound `O=C(O)C1=Cc2cc(Cl)ccc2OC1c1ccc(Cl)c(Cl)c1` (racemic) [Example 9-2, 2-(3,4-dichlorophenyl)-6-chloro-2H-chromene-3-carboxylic acid] gave a Ki of 300 nM.

For the compound `O=C(O)C1=Cc2ccc3ccccc3c2OC1c1ccc(Cl)c(Cl)c1` (racemic) [Example 9-3, 2-(3,4-dichlorophenyl)-2H-benzo[h]chromene-3-carboxylic acid], the affinity, expressed as Ki, was 1200 nM.

`O=C(O)C1=Cc2cc(F)ccc2OC1c1ccc(Cl)c(Cl)c1` (racemic) [Example 9-4, 2-(3,4-dichlorophenyl)-6-fluoro-2H-chromene-3-carboxylic acid] displayed a Ki of 340 nM.

`O=C(O)C1=Cc2ccc(Br)cc2OC1c1ccc(Cl)c(Cl)c1` (racemic) [Example 9-5, 2-(3,4-dichlorophenyl)-7-bromo-2H-chromene-3-carboxylic acid]: the Ki amounted to 720 nM.

In the case of `COc1ccc2c(c1)OC(c1ccc(Cl)c(Cl)c1)C(C(=O)O)=C2` (racemic) [Example 9-6, 2-(3,4-dichlorophenyl)-7-methoxy-2H-chromene-3-carboxylic acid], the affinity, expressed as Ki, was 300 nM.

With `O=C(O)C1=Cc2ccccc2OC1c1ccc(Cl)c(Cl)c1` (single isomer, unassigned; (+)) [Example 6b, (+)-2-(3,4-dichlorophenyl)-2H-chromene-3-carboxylic acid], the Ki is 1700 nM.

In the case of `O=C(O)C1=Cc2ccccc2OC1c1ccc(Cl)c(Cl)c1` (single isomer, unassigned; (-)) [Example 6a, (−)-2-(3,4-dichlorophenyl)-2H-chromene-3-carboxylic acid], the Ki was determined as 80 nM.
